# Results from patent US10731187B2, “Recombinant strain producing O-aminobenzoate and fermentative production of aniline from renewable resources via 2-aminobenzoic acid” (Covestro Deutschland AG, priority 2014, dated 2020).
# Tests used:
# [1] = system: Corynebacterium glutamicum; test: Aminobenzoate stability in fermenter culture supernatants by HPLC-DAD; details: HPLC-DAD 254 nm
# Description: It had to be excluded that the aminobenzoates were degraded by the organism and therefor the growth is restored after the prolonged lag-phase. To investigate the aminobenzoate stability in the fermenters culture supernatant samples were collected during the fermentation and analyzed by HPLC-DAD (254 nm) (see FIG. 23 and Example 3).
# In a further experiment the concentration of oAB was increased to investigate the effect on the C. glutamicum strain. The four fermenters were hereto supplemented with 0 g/L, 15 g/L, 35 g/L and 80 g/L of oAB. […] The rest of the cultivation conditions was kept as described above. […] Cultures supplemented with 15 g/L oAB have shown an extensive lag-phase over 34-48 h before growth was recovered and cells entered the exponential phase (see FIG. 24). […]
# An Agilent 1100 series HPLC-DAD system (with diode array detector; Agilent Technologies, Santa Clara (USA)) was used to quantify oAB concentrations in culture supernatants. […] The following gradient with a flow rate of 0.5 mL/min was applied: 0-1 min, 2% B; 1-2 min, 2-10% B; 2-12 min, 10-70% B; 12-23 min, 70-90% B; 23-25 min, 90-98% B, 25-27 min, 98% B; 27-27.5 min, 98%-2% B; 27.5-30 min, 2% B. The oAB concentration was determined from the signal integration at 254 nm (retention time: 18.9 min) using an external calibration curve.
# [2] = Solubility of oAB in fermentation broth slurry; format: physicochemical; details: fermentation broth of Corynebacterium glutamicum; room temperature, pH 4.5, fermentation broth
# Protocol: An industrial sugar source was used for fermentation of Corynebacterium glutamicum. 100 ml of the broth with a content of 21.5 g/L glucose, 3.7 g/L lactate was mixed with 10 g anthranilic acid in a 250 ml laboratory reactor. […] Afterwards 9.12 g NaOH (32%) were added in 4 portions until a solution was present. […] Following […] HCl (37%) were added within 1 hour. By dosing of HCl first nucleation took place as from a pH-value of 5.8. The number of crystals increased during dosing. […] Afterwards the slurry was stirred for 1 hour. Finally the slurry was filtered.
smiles,measurement,setting,value
"Nc1ccccc1C(=O)O [oAB, 2-aminobenzoic acid]",degradation during cultivation / fermentation,[1],excluded
same,solubility,[2],~4500 µg/mL
